Laboratory results reported in patent publication US20260224602A1, “METHODS AND PHARMACEUTICAL COMPOSITIONS FOR TREATING DEMENTIA” (Neurxstem, priority 2023, published 2026).
Where a name gives a salt, the structure may show the parent alone. Read-outs that look alike come from different tables or passages of the source.

How the values were obtained:
[1] = cited from earlier work
[2] = test system: AD-NNOP-SPOR neural organoids; experiment: CGS-21680 effect on gene expression in AD-NNOP-SPOR neural organoids (Ampliseq transcriptomics); assay type: cell-based, human
Protocol: (§1) Neural Organoids derived from induced pluripotent stem cells derived from adult skin cells of AD, ADRD or MED patients were grown in vitro for 4 weeks as previous described in U.S. Pat. No. 11,435,890, incorporated by reference in its entirety herein. Transcriptomic data from these neural organoids were obtained. Differences in expression of 20,814 genes expressed in the human genome were determined between these neural organoids and those from neural organoids from a normal individual human (an individual not having/diagnosed with AD, ADRD, or MED). Detailed data analysis using Gene Card and Pubmed data bases were performed.
(§2) Human induced pluripotent stem cell-derived neural organoids were generated according to the following protocol, as set forth in U.S. Pat. No. 11,435,890, incorporated by reference in its entirety herein. Briefly, irradiated murine embryonic fibroblasts (MEF) were plated on a gelatin coated substrate in MEF media (Dulbecco's Modified Eagle Medium (DMEM) supplemented with 10% Fetal Bovine Serum, 100 units/ml penicillin, 100 microgram/ml streptomycin, and 0.25 microgram/ml Fungizone) at a density of 2×10^5 cells per well. The seeded plate was incubated at 37° C. overnight.
In Table 1, the effect of A2A receptor agonist to reverse the aberrant expression of the biomarkers in AD disease was assessed. […] Log2 fold change with a positive value indicates a […] in expression of an AD-NNOP gene when compared to Normal-NNOP and a negative number indicates an increase in gene expression.

[3] = test system: AD-NNOP-APP neural organoids; experiment: PF-3845 effect on gene expression in AD-NNOP-APP neural organoids (Ampliseq transcriptomics); assay type: cell-based, human
Protocol: as §1, with “performed. […] These genes comprise a suite of biomarkers for Alzheimer's disease.” for “performed.”
as §2
It is known that FAAH inhibitor PF-3845 will raise endogenous levels of endocannabinoid anandamide receptor agonist anandamide. Consequently, PF-3845 treatment can increase endocannabinoid anandamide receptor activity despite dementia-associated downregulation. […] AD-NNOP-APP neural organoids were incubated with vehicle (0.1% DMSO; control) or PF-3845 dissolved in DMSO at 10 µM for 4 days and harvested for RNA extraction and gene expression analysis by Ampliseq™ (Thermofisher). Log2 fold change with a positive value indicates a […] in expression of an AD-NNOP gene when compared to Normal-NNOP and with a negative number an increase in gene expression. […] The expression of these genes were known to be increased in AD-NNOP-APP compared to normal (data not shown). Thus, PF-3845 or FAAH inhibitor was effective in reverting the biomarkers of AD to normalcy.

[4] = test system: adenosine A2A receptor; details: Zochi et al., 1996, cited from earlier work
[5] = AD-NNOP-SPOR, CGS-21680 1 μM 4 days vs vehicle
[6] = AD-NNOP-APP >12 weeks in culture, PF-3845 10 µM 4 days vs vehicle (0.1% DMSO), positive = decrease in expression

SMILES: CCNC(=O)[C@H]1O[C@@H](n2cnc3c(N)nc(NCCc4ccc(CCC(=O)O)cc4)nc32)[C@H](O)[C@@H]1O [CGS-21680, 2-p-(2-Carboxyethyl) phenethylamino-5′-N-ethylcarboxamidoadenosine hydrochloride hydrate]
- solubility in 45% (w/v) aq 2-hydroxypropyl-β-cyclodextrin ([1]; 45% (w/v) aq 2-hydroxypropyl-β-cyclodextrin): ≤ 20 mg/mL
- solubility in DMSO [1]: up to 3.4 mg/mL
- effect on TBX3 expression ([2]; AD-NNOP SPOR, compared to control treatment): decreased TBX3 expression
- effect on expression of abnormal AD genes [2, 5]: invert the expression of the abnormal genes in AD and revert them back to normalcy
- number of differentially expressed genes vs control group [2, 5]: 2023 genes

SMILES: O=C(Nc1cccnc1)N1CCC(Cc2cccc(Oc3ccc(C(F)(F)F)cn3)c2)CC1 [PF-3845]
- effect on expression of measured AD biomarker genes ([3]; AD-NNOP APP, PF-3845 compared to control treatment): expression of the measured genes were decreased
- ADM log2 Fold Change [3, 6]: 2.14
- BGN log2 Fold Change [3, 6]: 2.50
- CD36 log2 Fold Change [3, 6]: 2.86
- MAP3K19 log2 Fold Change [3, 6]: 2.56
- SLC16A3 log2 Fold Change [3, 6]: 2.05
- number of differentially expressed genes vs control group ([3]; AD-NNOP-APP, PF-3845 10 µM 4 days vs vehicle): 2111 genes

SMILES: CCNC(=O)[C@H]1O[C@@H](n2cnc3c(N)nc(C#CC[C@H]4CC[C@H](C(=O)OC)CC4)nc32)[C@H](O)[C@@H]1O [apadenoson, methyl (1R,4r)-4-(3-(6-amino-9-((2R,3R,4S,5S)-5-(ethylcarbamoyl)-3,4-dihydroxytetrahydrofuran-2-yl)-9H-purin-2-yl)prop-2-yn-1-yl)cyclohexane-1-carboxylate]
- solubility in DMSO ([1]; MedKoo Biosciences): Soluble in DMSO
